Data published in ChEMBL document CHEMBL1201862, “PubChem BioAssay data set” (2004).
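Values below derive from 48-hour exposures of cells grown in 96-well plates, with endpoints linearly interpolated between the two concentrations bracketing the appropriate inhibition level. GI50 = concentration required for 50% inhibition of growth.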 Active and inactive are the calls of the source. No stated cut-off is given here; in the data, active = GI50 up to about 1.1 µM and inactive = higher.

Assays:
Assay in all cases: growth of human tumour cells (NCI), 48 h
[1] = test system: MDA-MB-231
[2] = test system: MDA-N
[3] = test system: PC-3
[4] = test system: T47D
[5] = test system: BT-549
[6] = test system: 786-0
[7] = test system: HOP-18
[8] = test system: LXFL 529
[9] = test system: RXF 631

Question: `C=CC1OC(CCCOC(=O)C(C)(C)C)O[C@@H]1CC` (stereo not given in full) was tested. Which GI50 [1] did it give?
Answer: > 100 µM (inactive)

Question: What about the GI50 [2] of the same compound?
Answer: > 100 µM (inactive)

Question: And the GI50 [3]?
Answer: > 100 µM (inactive)

Question: And the GI50 [4]?
Answer: > 100 µM (inactive)

Question: Which GI50 [5] does the source give for `O=S(=O)(c1ccccc1)C1CC(c2nc3ccccc3[nH]2)=NO1` (stereo not given) here?
Answer: > 100 µM (inactive)

Question: And the GI50 [1]?
Answer: > 100 µM (inactive)

Question: What about the GI50 [2] of the same compound?
Answer: > 100 µM (inactive)

Question: What about the GI50 [3] of the same compound?
Answer: > 100 µM (inactive)

Question: And the GI50 [4]?
Answer: > 100 µM (inactive)

Question: What does the source list for `COc1cc(C2S/C(=C/c3ccccc3)C(=O)N2c2cccc(NC(C)=O)c2)cc(OC)c1OC` (stereo not given)?
Answer: GI50 [5]: 24.7 µM (inactive); GI50 [1]: 13.9 µM (inactive); GI50 [2]: 26.7 µM (inactive); GI50 [3]: 14.1 µM (inactive); GI50 [4]: 15.4 µM (inactive)

Question: With `CC(C)=CC1CC(=O)C1(C)Sc1ccccc1` (stereo not given) as the compound, how does the GI50 [6] read?
Answer: 50.7 µM (inactive)

Question: What about the GI50 [7] of the same compound?
Answer: > 100 µM (inactive)

Question: And the GI50 [8]?
Answer: 42.7 µM (inactive)

Question: And the GI50 [9]?
Answer: 28 µM (inactive)

Question: How did the GI50 [5] turn out when `OC(c1cccnc1Cl)c1nc2ccccc2c2ccnc(Cl)c12` (stereo not given) was run?
Answer: 5.79 µM (inactive)

Question: And the GI50 [1]?
Answer: 7.82 µM (inactive)

Question: And the GI50 [2]?
Answer: 0.69 µM (active)

Question: What about the GI50 [3] of the same compound?
Answer: 2.11 µM (inactive)

Question: What about the GI50 [4] of the same compound?
Answer: 21.4 µM (inactive)

Question: Which results are given for `OC1CCSc2ccccc21` (stereo not given)?
Answer: GI50 [7]: > 100 µM (inactive); GI50 [8]: > 100 µM (inactive)

Question: For `O=Cc1c(Cn2ccnc2)c2cc([N+](=O)[O-])ccc2n1Cc1ccccc1`, which GI50 [7] is on record?
Answer: > 25.8 µM (inactive)

Question: Which results are given for `Cc1ccc(C2=C(C#N)C(N)OC3=C2COc2ccccc23)cc1` (stereo not given)?
Answer: GI50 [5]: > 100 µM (inactive); GI50 [1]: 23.7 µM (inactive); GI50 [2]: 44.2 µM (inactive); GI50 [3]: 18.9 µM (inactive)

Question: For `O=C(NC(Cc1ccc(I)cc1)C(=O)O)c1ccc(Cl)cc1` (stereo not given), which GI50 [7] is on record?
Answer: > 100 µM (inactive)

Question: `CN1C[C@H]2[C@@H](C1=O)[C@H](c1ccc([N+](=O)[O-])cc1)ON2C` was tested. Which GI50 [1] did it give?
Answer: > 100 µM (inactive)

Question: And the GI50 [2]?
Answer: > 100 µM (inactive)

Question: And the GI50 [3]?
Answer: > 100 µM (inactive)

Question: And the GI50 [4]?
Answer: > 100 µM (inactive)

Question: What does the source list for `CCOP(=O)(COCCn1nc(Br)c(=O)[nH]c1=O)OCC`?
Answer: GI50 [1]: > 100 µM (inactive); GI50 [2]: > 100 µM (inactive); GI50 [3]: > 100 µM (inactive); GI50 [4]: > 100 µM (inactive)

Question: For `O=C(O)c1cn2c3c(cc(N4CCN(CCO)CC4)cc3c1=O)SCC2`, which GI50 [7] is on record?
Answer: > 79.3 µM (inactive)

Question: How did the GI50 [8] turn out when `O=C(Nc1ccc(Cl)cc1)C(=O)C(C(=O)c1ccccc1-c1ccccc1)C1OC(=O)c2ccccc21` (stereo not given) was run?
Answer: 16 µM (inactive)

Question: For `CC(=O)OC[C@H]1[C@@H]2C(CC[C@]13CO3)OC(=O)CC(C)[C@]2(C)CCc1ccoc1` (stereo not given in full), which GI50 [5] is on record?
Answer: > 100 µM (inactive)

Question: And the GI50 [1]?
Answer: > 100 µM (inactive)

Question: And the GI50 [2]?
Answer: > 100 µM (inactive)

Question: What about the GI50 [3] of the same compound?
Answer: > 100 µM (inactive)

Question: What about the GI50 [4] of the same compound?
Answer: > 100 µM (inactive)

Question: With `COc1cc(O)c2c(c1)C(=O)c1cc3c(c(O)c1C2=O)C(OC1OC(C)C(O)C(O)C1OC)C(OC)C(C)(O)C3=O` (stereo not given) as the compound, how does the GI50 [7] read?
Answer: 5.16 µM (inactive)

Question: `COC(=O)C1C(O)C(C)C(O)OC1C(C)C(O)C(C)/C=C\C=C(/C)C(=O)Nc1c(C)c(OC(C)=O)c2c(c1O)C(=O)C(C)=C1OCOC(/C(C)=C/C(C)=O)=C12` (stereo not given) was tested. Which GI50 [7] did it give?
Answer: 15.2 µM (inactive)

Question: With `O=C(N/C=C1\C(=O)Oc2ccccc2C1=O)NC1CCCCC1` as the compound, how does the GI50 [8] read?
Answer: 63.1 µM (inactive)

Question: What does the source list for `Cc1ccc(C)c(NC(=O)C(=O)C(C(=O)c2ccc3ccccc3c2)C2OC(=O)c3ccccc32)c1` (stereo not given)?
Answer: GI50 [8]: 7.59 µM (inactive); GI50 [9]: 16.1 µM (inactive)

Question: For `CCOC(=O)c1c(NC(=O)Nc2ccccc2)c(C(N)=O)c2n1CCCCC2`, which GI50 [6] is on record?
Answer: > 100 µM (inactive)

Question: And the GI50 [5]?
Answer: > 100 µM (inactive)

Question: And the GI50 [1]?
Answer: > 100 µM (inactive)

Question: And the GI50 [3]?
Answer: > 100 µM (inactive)

Question: What about the GI50 [4] of the same compound?
Answer: > 100 µM (inactive)

Question: For `O=S(=O)(O)c1ccc(/N=N\c2ccc(/N=N\c3ccc(/C=C/c4ccc(/N=[N+](/[O-])c5ccc(/C=C/c6ccc(/N=N/c7ccc(/N=N\c8ccc(S(=O)(=O)O)cc8)cc7)cc6S(=O)(=O)O)c(S(=O)(=O)O)c5)cc4S(=O)(=O)O)c(S(=O)(=O)O)c3)cc2)cc1`, which GI50 [7] is on record?
Answer: > 100 µM (inactive)

Question: `CC(c1ccccc1)/[N+]([O-])=C/c1ccccc1` (stereo not given) was tested. Which GI50 [7] did it give?
Answer: 34.9 µM (inactive)

Question: And the GI50 [8]?
Answer: > 100 µM (inactive)

Question: Which GI50 [7] does the source give for `CC[C@@]1(O)C[C@H](OC2CC(N(C)C)C(O)C(C)O2)c2c(cc3c(c2O)C(=O)c2c(O)ccc(O)c2C3=O)[C@H]1C(=O)OC` (stereo not given in full) here?
Answer: 0.212 µM (active)

Question: What does the source list for `CCN1c2ccccc2NC(=S)c2c(-c3ccccc3)n[nH]c21`?
Answer: GI50 [5]: 45.5 µM (inactive); GI50 [1]: 19.3 µM (inactive); GI50 [2]: 16.4 µM (inactive); GI50 [3]: 25.6 µM (inactive); GI50 [4]: 17.9 µM (inactive)
